In ChEMBL document CHEMBL1201862, “PubChem BioAssay data set” (2004):
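48-hour exposure; five concentrations; linearly interpolated endpoints. The concentration for 50% growth inhibition is given as GI50.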 Activity calls are given as the source filed them. Cut-off read from the data, not from the text of the source: active = GI50 up to about 1.1 µM and inactive = higher.

Tests used:
Assay in all cases: DTP human tumour cell line panel, 48 h
ACHN = system: ACHN
BT-549 = system: BT-549
COLO 205 = system: COLO 205
HT-29 = system: HT-29
Hs-578T = system: Hs-578T
K562 = system: K562
MDA-MB-435 = system: MDA-MB-435
MDA-N = system: MDA-N
MOLT-4 = system: MOLT-4
OVCAR-3 = system: OVCAR-3
OVCAR-8 = system: OVCAR-8
PC-3 = system: PC-3
SF-539 = system: SF-539
SR = system: SR
SW-620 = system: SW-620
UACC-257 = system: UACC-257
UO-31 = system: UO-31
RPMI-8226 = system: RPMI-8226
SNB-75 = system: SNB-75

SMILES | GI50 (ACHN) | GI50 (BT-549) | GI50 (COLO 205) | GI50 (HT-29) | GI50 (Hs-578T) | GI50 (K562) | GI50 (MDA-MB-435) | GI50 (MDA-N) | GI50 (MOLT-4) | GI50 (OVCAR-3) | GI50 (OVCAR-8) | GI50 (PC-3) | GI50 (SF-539) | GI50 (SR) | GI50 (SW-620) | GI50 (UACC-257) | GI50 (UO-31) | GI50 (RPMI-8226) | GI50 (SNB-75)
Nc1ccc2c(c1)S(=O)(=O)c1cc(O)ccc1O2 | > 100 µM (inactive) | 45.6 µM (inactive) | > 100 µM (inactive) | > 100 µM (inactive) | > 100 µM (inactive) | > 100 µM (inactive) | > 100 µM (inactive) | > 100 µM (inactive) | > 100 µM (inactive) | > 100 µM (inactive) | > 100 µM (inactive) | > 100 µM (inactive) | > 100 µM (inactive) | 39.7 µM (inactive) | > 100 µM (inactive) | > 100 µM (inactive) | 55.3 µM (inactive) |  | 
COc1cc(C2SCC(=O)N2c2ccc(NC(=O)c3ccc(N4C(=O)CSC4c4cc(OC)c(OC)c(OC)c4)cc3)cc2)cc(OC)c1OC (centres undefined) | 63.7 µM (inactive) | 56 µM (inactive) | > 100 µM (inactive) | 93.1 µM (inactive) | 68.1 µM (inactive) | 37.9 µM (inactive) | 20.6 µM (inactive) | 23.1 µM (inactive) | 34.8 µM (inactive) | 37.1 µM (inactive) | 40.3 µM (inactive) | 58.3 µM (inactive) | 42.7 µM (inactive) |  | 36.9 µM (inactive) | 60.5 µM (inactive) | 67.1 µM (inactive) | 28.9 µM (inactive) | 22.2 µM (inactive)
CC(C)(C)n1c(=O)n(C(=O)C(Cl)(Cl)Cl)n(C(=O)C(Cl)(Cl)Cl)c1=O | > 100 µM (inactive) | > 100 µM (inactive) | > 100 µM (inactive) | > 100 µM (inactive) | > 100 µM (inactive) | > 100 µM (inactive) | > 100 µM (inactive) | > 100 µM (inactive) | > 100 µM (inactive) | > 100 µM (inactive) | > 100 µM (inactive) | > 100 µM (inactive) | > 100 µM (inactive) | > 100 µM (inactive) | > 100 µM (inactive) | > 100 µM (inactive) | > 100 µM (inactive) | > 100 µM (inactive) | 
O=S(=O)(NC1CCCCC1)c1ccc2c(c1)OCCOCCOCCOCCO2 | > 100 µM (inactive) | > 100 µM (inactive) | > 100 µM (inactive) | > 100 µM (inactive) | > 100 µM (inactive) | > 100 µM (inactive) | > 100 µM (inactive) | > 100 µM (inactive) | > 100 µM (inactive) |  | > 100 µM (inactive) | > 100 µM (inactive) | > 100 µM (inactive) | > 100 µM (inactive) | > 100 µM (inactive) | > 100 µM (inactive) | > 100 µM (inactive) | > 100 µM (inactive) | > 100 µM (inactive)
O=C(/C=C/c1ccc2c(c1)OCO2)Cc1nc2ncccc2[nH]c1=O | 32.2 µM (inactive) | > 100 µM (inactive) | 70.3 µM (inactive) | > 100 µM (inactive) | 36.5 µM (inactive) | 5.55 µM (inactive) | > 100 µM (inactive) | > 100 µM (inactive) | > 100 µM (inactive) | > 100 µM (inactive) | 59.8 µM (inactive) | > 100 µM (inactive) | 53.7 µM (inactive) | 77.1 µM (inactive) | > 100 µM (inactive) | > 100 µM (inactive) | > 100 µM (inactive) | > 100 µM (inactive) | 
O=S(=O)(N=S(c1ccc(Cl)cc1)c1ccc(Cl)cc1)c1ccccc1 | > 100 µM (inactive) | > 100 µM (inactive) | > 100 µM (inactive) | 88.7 µM (inactive) | 56.9 µM (inactive) | 46.8 µM (inactive) | 37.9 µM (inactive) | 40.7 µM (inactive) | 33.8 µM (inactive) |  | > 100 µM (inactive) | 43.6 µM (inactive) | > 100 µM (inactive) | 37.5 µM (inactive) | > 100 µM (inactive) | 77.4 µM (inactive) | 45.1 µM (inactive) | 40.4 µM (inactive) | > 100 µM (inactive)
CCCCC(C(=O)N/N=C/c1ccc([N+](=O)[O-])o1)C(=O)N/N=C/c1ccc([N+](=O)[O-])o1 | 1.82 µM (inactive) | 5.61 µM (inactive) | 4.28 µM (inactive) | 2.14 µM (inactive) | 2.4 µM (inactive) | 3.28 µM (inactive) | 5.7 µM (inactive) | 3.53 µM (inactive) | 2.09 µM (inactive) | 2.32 µM (inactive) | 2.05 µM (inactive) | 2.81 µM (inactive) | 10.1 µM (inactive) |  | 2.54 µM (inactive) |  | 1.99 µM (inactive) | 0.682 µM (active) | 17.9 µM (inactive)
